Data as given in publication PMC6326523, “A high-throughput screen to identify novel small molecule inhibitors of the Werner Syndrome Helicase-Nuclease (WRN)” (PLoS ONE, 2019).

What was measured:
Type in all cases: biochemical
full-length WRN helicase = target: T1, full-length WRN helicase (Homo sapiens, UniProt Q14191); assay: Radiometric helicase inhibitor reversibility assay (100-fold dilution); design: key to Reversibility: (-) = irreversible; (+) = minimally reversible; (++) = partially reversible; (+++) = reversible; conditions: for Reversibility: WRN 100 nM preincubated at 10-fold IC50, diluted 100-fold, unwinding 0-16 min; for Reversibility of inhibition (in words): full-length WRN
T1 construct: Full length recombinant WRN [18], BLM [19], and FANCJ [20] proteins were purified from insect cells; made in house; host or cells: insect cells
Method: WRN (full length, 100 nM concentration) was incubated with each small molecule inhibitor at a concentration 10-fold higher than the IC50 for that inhibitor, in a 10 μL reaction at room temperature. 1.5 μL of this reaction was added to 148.5 μL of reaction salts with 2 mM ATP, 0.5 nM FORKR reducing the full length WRN concentration to 1 nM and the drug concentration to 10-fold less than its IC50. Reactions were placed at 37°C and 20 μL of reaction were removed at specific intervals (0–16 min) and quenched with 20 μL of 2X STOP dye containing EDTA, glycerol, bromphenol blue and xylene cyanol. Samples were electrophoresed for 1.5 hr at 200 V on a 12% non-denaturing PAGE gel in 1X TBE Buffer.
Eighteen compounds were selected based on potency of inhibition in both the screening and radiometric assays, and exclusion of compounds with undesired chemical features. For each compound, we performed titrations over a wide range of concentrations with a fixed concentration of full-length WRN protein (1 nM), and quantitated unwinding as a percentage of full-length WRN unwinding of the FORKR DNA substrate (0.5 nM) in the absence of compound (Fig 6A and 6B, S3 Fig). […] In addition to determining an IC50 value for each compound, we also conducted helicase assays to determine the reversibility of inhibition by each compound tested. Details of the assay can be found in the Materials and Methods section, but briefly 100 nM WRN was incubated with each compound at a concentration 10-fold higher than its IC50 value. The reaction was diluted 100-fold with the addition of DNA substrate (0.5 nM final concentration) and ATP (2 mM final concentration) and unwinding was measured (Fig 7A–7D, S4 Fig). Inhibition was either classified as reversible, partially reversible, minimally reversible, or irreversible based on the ability of helicase activity to recover after dilution of the compound 100-fold. Table 2 summarizes the IC50 values and reversibility for each compound and includes IC50 values obtained from the screens for comparison.

[1] = target: T2, GST-WRN500-946 helicase domain fragment (Homo sapiens, UniProt Q14191); assay: High-throughput fluorometric helicase screen, PubChem AID 651768; conditions: initial qHTS; 20 nM GST-WRN500-946; 100 nM FORKF; NA = Not Active; read-out: IC50 (μM) Assay ID 651768
T2 construct: made in house; host or cells: insect cells
Method: (§1) The structures of the members of this collection are available in the PubChem portal https://pubchem.ncbi.nlm.nih.gov/. For both the 350,000 small molecule collection and the LOPAC^1280 screens, 3 μL of GST-WRN500-946 or reaction buffer only were dispensed using a solenoid-valve nanoliter dispenser into a black 1536-well plate (Greiner). Twenty three nL of each serially diluted compound (0.08–50 μM for the LOPAC screen and 0.003–114 μM for the larger library screen) or control were added to each well using a Kalypsys pintool equipped with a 1536-pin array. Plates were incubated at room temperature for 15 min, followed by initiation of the reactions via the addition of 1 μL of substrate (100 nM FORKF and 2 mM ATP final concentrations). Plates were transferred to a ViewLux high-throughput CCD imager and fluorescence was measured in kinetic mode using an excitation filter of 525 nm and emission filter of 598 nm.
Zʹ factor, a measure for assay quality control was calculated using the formula Z′ = 1−(3σS^++3σS^−)∕|μS^+−μS^−| as described previously. In this formula, 3σS^+ represents 3 standard deviations from the mean of positive signals while 3σS^− represents 3 standard deviations from the mean of negative signals. μS^+ and μS^− represent the mean of positive signals and negative signals respectively. Percent activity was derived using in-house software (http://tripod.nih.gov/curvefit/). Dose-response curves were classified as described previously.
A collection of approximately 350,000 compounds is available for screening which has been assembled from multiple sources to provide diverse chemical scaffolds with known purity, identity and solubility. To perform the high-throughput screen of these compounds, we needed to produce approximately 50 milligrams of recombinant WRN helicase fragment. To accomplish this, we cloned the helicase domain fragment into several plasmids for either insect cell or bacterial expression to optimize expression and yield. We selected expression plasmids for insect cell expression with either a GST or MBP tag (image A in S1 Fig) and purified the protein (image B in S1 Fig). The GST-WRN500-946 fragment isolated from insect cells was used in the high throughput screen with the conditions described in Fig 2C (20 nM GST-WRN500-946, 100 nM FORKF DNA substrate) and a summary of the results can be found on PubChem (National Center for Biotechnology Information. PubChem BioAssay Database; Assay Identifier (AID) = 651768, https://pubchem.ncbi.nlm.nih.gov/bioassay/651768). […] To verify the active compounds, approximately 600 hit molecules were retested in a confirmatory screen also found on PubChem (National Center for Biotechnology Information. PubChem AID = 720497, https://pubchem.ncbi.nlm.nih.gov/bioassay/720497). Of these, a little less than four hundred compounds were confirmed as active compounds.

[2] = target: T3, WRN helicase domain fragment (Homo sapiens, UniProt Q14191); assay: WRN-hel-f2 protocol qHTS confirmatory (15 compound confirmatory assay); conditions: NA = Not Active
T3 construct: GST (N); made in house
Method: as §1

[3] = target: T4, full-length WRN exonuclease activity (Homo sapiens, UniProt Q14191); assay: WRN exonuclease activity on radiolabeled FORKR DNA substrate; conditions: WRN 20 nM, FORKR 1 nM; for Inhibition of WRN exonuclease activity: same concentration range as activity against WRN helicase
T4 construct: Full length recombinant WRN [18], BLM [19], and FANCJ [20] proteins were purified from insect cells; made in house; host or cells: insect cells
Method: Fig 8 Specificity of selected compounds for inhibiting full-length WRN helicase activity. […] (B) Gel image of full-length WRN (20 nM) exonuclease activity on the radiolabeled FORKR DNA substrate (1 nM) in the presence of increasing concentrations of NCGC00029283-03, NCGC00063279-03 and NCGC00357377-01 (0–200 μM).
Three compounds identified from the cherry-picked set were tested for their effects on WRN exonuclease activity (20 nM) on the FORKR DNA substrate (1 nM) as well as DNA unwinding by full-length BLM (0.1 nM) and FANCJ (5 nM) helicases, which belong to the same Superfamily 2 as WRN [25], to assess their specificity for inhibition of WRN-catalyzed unwinding of the FORKR DNA substrate (0.5 nM). […] Nonetheless, these two compounds were also further tested in cell-based assays to assess their effects on proliferation.

T4 sequence (Q14191 whole entry): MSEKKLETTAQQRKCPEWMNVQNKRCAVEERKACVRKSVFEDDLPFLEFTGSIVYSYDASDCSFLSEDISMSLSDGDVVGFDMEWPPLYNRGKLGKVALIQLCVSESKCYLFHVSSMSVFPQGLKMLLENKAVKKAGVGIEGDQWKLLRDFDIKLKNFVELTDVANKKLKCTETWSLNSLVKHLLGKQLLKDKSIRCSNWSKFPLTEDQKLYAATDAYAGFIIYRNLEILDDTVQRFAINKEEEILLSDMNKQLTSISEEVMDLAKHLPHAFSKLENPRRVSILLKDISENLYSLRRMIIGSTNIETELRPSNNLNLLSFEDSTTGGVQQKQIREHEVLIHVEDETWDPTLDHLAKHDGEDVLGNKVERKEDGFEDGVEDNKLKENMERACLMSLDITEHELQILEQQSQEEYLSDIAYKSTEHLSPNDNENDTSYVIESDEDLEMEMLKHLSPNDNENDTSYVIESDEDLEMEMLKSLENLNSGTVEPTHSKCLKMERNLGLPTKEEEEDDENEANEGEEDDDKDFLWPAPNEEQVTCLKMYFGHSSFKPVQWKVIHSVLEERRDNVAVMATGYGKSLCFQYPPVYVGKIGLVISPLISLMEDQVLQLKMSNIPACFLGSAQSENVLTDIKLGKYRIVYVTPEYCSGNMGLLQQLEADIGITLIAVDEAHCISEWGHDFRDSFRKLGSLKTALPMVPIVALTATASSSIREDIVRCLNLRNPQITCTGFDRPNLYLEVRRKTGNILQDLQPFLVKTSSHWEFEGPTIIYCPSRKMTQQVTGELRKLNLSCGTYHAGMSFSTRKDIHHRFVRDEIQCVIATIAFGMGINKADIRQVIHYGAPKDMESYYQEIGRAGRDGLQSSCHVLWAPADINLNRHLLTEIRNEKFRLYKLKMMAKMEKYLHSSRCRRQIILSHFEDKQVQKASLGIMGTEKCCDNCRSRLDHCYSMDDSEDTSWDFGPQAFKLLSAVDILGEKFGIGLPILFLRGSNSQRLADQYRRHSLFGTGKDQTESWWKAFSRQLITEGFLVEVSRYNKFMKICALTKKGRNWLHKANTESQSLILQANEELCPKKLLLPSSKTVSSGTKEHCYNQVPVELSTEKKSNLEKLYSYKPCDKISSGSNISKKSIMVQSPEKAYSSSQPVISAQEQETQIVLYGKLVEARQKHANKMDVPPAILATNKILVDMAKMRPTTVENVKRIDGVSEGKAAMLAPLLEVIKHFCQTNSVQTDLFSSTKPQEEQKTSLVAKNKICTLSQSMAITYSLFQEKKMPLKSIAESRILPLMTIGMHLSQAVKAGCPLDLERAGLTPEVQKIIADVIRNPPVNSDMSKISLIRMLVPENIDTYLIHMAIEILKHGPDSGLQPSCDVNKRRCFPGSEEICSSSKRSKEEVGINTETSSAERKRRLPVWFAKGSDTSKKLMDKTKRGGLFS
T1 sequence (Q14191 whole entry): as above
T2 sequence (Q14191 500-946): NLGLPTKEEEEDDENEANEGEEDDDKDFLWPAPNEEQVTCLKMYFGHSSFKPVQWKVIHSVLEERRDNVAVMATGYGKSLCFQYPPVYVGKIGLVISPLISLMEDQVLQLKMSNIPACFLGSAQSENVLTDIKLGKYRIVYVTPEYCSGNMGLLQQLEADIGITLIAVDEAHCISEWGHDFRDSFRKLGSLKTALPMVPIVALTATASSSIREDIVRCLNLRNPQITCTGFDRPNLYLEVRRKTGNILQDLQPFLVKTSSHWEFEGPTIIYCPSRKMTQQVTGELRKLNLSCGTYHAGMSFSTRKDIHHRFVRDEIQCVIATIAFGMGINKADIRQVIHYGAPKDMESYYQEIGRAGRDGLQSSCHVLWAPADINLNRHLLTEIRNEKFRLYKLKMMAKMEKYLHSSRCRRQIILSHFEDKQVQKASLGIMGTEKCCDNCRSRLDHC
T3 sequence (Q14191 500-946): as above

Structure (SMILES) | Reversibility (full-length WRN helicase) | IC50 [1] | IC50 [2] | Inhibition of WRN exonuclease activity at 200 μM [3] | Inhibition of WRN exonuclease activity [3] | Reversibility of inhibition (in words) (full-length WRN helicase)
Cc1ccc(-c2csc(NS(=O)(=O)c3cccc(F)c3)n2)o1 [MLS002251300-02] | ++ | 31.6 µM | 20 µM | some ability to inhibit | unable to inhibit | 
COc1ccc2nc(O)c(-c3noc(-c4ccc(F)cc4)n3)cc2c1 [NCGC00029283-02] | ++ | 50 µM | 0.45 µM | some ability to inhibit | unable to inhibit | at least partially reversible
COc1ccc2nc(O)c(-c3noc(-c4ccccc4)n3)cc2c1 [NCGC00063279-02] | +++ | 21.5 µM | 2.5 µM | some ability to inhibit | unable to inhibit | at least partially reversible
